Laboratory results reported in ChEMBL document CHEMBL4602699, “Identification and Optimization of EphA2-Selective Bicycles for the Delivery of Cytotoxic Payloads” (J Med Chem, 2020).

Legend:
[1] = in vitro; details: human, plasma
[2] = test system: HT-1080; assay: animal or person; details: Rattus norvegicus, HT-1080, iv, 336 h, read-out: MED
[3] = in vitro; details: mouse, plasma
[4] = in vitro; details: human, plasma; remark: listed apart in the source
[5] = human, plasma, 2 h, 2 µM

Row | fraction unbound at 2 h, 2 µM [1] | half-life at 2 µM [3] [h] | half-life at 2 µM [4] [h] | Fu [5] | SMILES | minimal effective dose [2] [mg/kg]
1 | 0.44 | – | – | – | COc1cc2cc(c1Cl)N(C)C(=O)C[C@@H](OC(=O)[C@@H](C)N(C)C(=O)CCSSCCCC(=O)NCCC(=O)N(C)C(=O)CN(C)C(=O)CN(C)C(=O)CN(C)C(=O)CN(C)C(=O)CN(C)C(=O)CN(C)CC(=O)N(C)CC(=O)N(C)CC(=O)N(C)CC(=O)N[C@@H](C)C(=O)N[C@@H](CCCNC(=N)N)C(=O)N[C@@H](CC(=O)O)C(=O)N[C@H]1CSCCC(=O)N3CN4CN(C3)C(=O)CCSC[C@H](NC(=O)[C@H](CC(C)C)NC(=O)[C@@H]3CCCN3C(=O)[C@H](CC(N)=O)NC(=O)[C@H](C(C)C)NC(=O)[C@H](CC(C)C)NC(=O)[C@@H]3CCCN3C1=O)C(=O)N[C@@H](CC(C)C)C(=O)N[C@@H](Cc1c[nH]cn1)C(=O)N1CCC[C@H]1C(=O)N[C@H](CC(=O)O)C(=O)N[C@@H](CC1CCc3ccccc31)C(=O)NC(CCCCNC(=N)N)C(=O)N[C@H](C(N)=O)CSCCC4=O)[C@@]1(C)O[C@@H]1[C@@H](C)[C@H]1C[C@](O)(NC(=O)O1)[C@@H](OC)/C=C/C=C(\C)C2 (some centres undefined) | 3
2 | 0.41 | 33 | > 55 | – | CC(C)C[C@@H]1NC(=O)[C@@H]2CSCCC(=O)N3CN(CN(C3)C(=O)CCSC[C@H](NC(=O)[C@H](CC(=O)O)NC(=O)[C@H](CCCNC(=N)N)NC(=O)[C@H](C)NC(=O)CN(C)C(=O)CN(C)C(=O)CN(C)C(=O)CN(C)CC(=O)N(C)CC(=O)N(C)CC(=O)N(C)CC(=O)N(C)CC(=O)N(C)CC(=O)N(C)C(=O)CCN)C(=O)N3CCC[C@H]3C(=O)N[C@@H](CC(C)C)C(=O)N[C@@H](C(C)C)C(=O)N[C@@H](CC(N)=O)C(=O)N3CCC[C@H]3C(=O)N[C@@H](CC(C)C)C(=O)N2)C(=O)CCSC[C@@H](C(N)=O)NC(=O)C(CCCCNC(=N)N)NC(=O)[C@H](CC2CCc3ccccc32)NC(=O)[C@@H](CC(=O)O)NC(=O)[C@@H]2CCCN2C(=O)[C@H](Cc2c[nH]cn2)NC1=O (some centres undefined) | –
3 | – | – | – | Bld | CC(C)[C@H](NC(=O)[C@@H](CC(=O)O)NC(=O)[C@H](Cc1c[nH]cn1)NC(=O)CN(C)C(=O)CN(C)C(=O)CN(C)C(=O)CN(C)CC(=O)N(C)CC(=O)N(C)CC(=O)N(C)CC(=O)N(C)CC(=O)N(C)CC(=O)N(C)C(=O)CCN)C(=O)N1CCC[C@H]1C(=O)N[C@@H]1CSCc2cc3cc(c2)CSC[C@H](C(N)=O)NC(=O)[C@@H](CC(=O)O)NC(=O)[C@@H]2CCCN2C(=O)[C@H](CCCCNC(=N)N)NC(=O)[C@H](CC(N)=O)NC(=O)[C@H](C(C)(C)C)NC(=O)[C@@H]2CCCN2C(=O)[C@H](CSC3)NC(=O)[C@H](Cc2cccc3ccccc23)NC(=O)[C@H](Cc2ccccc2)NC(=O)C(C)(C)NC(=O)CNC(=O)[C@H](Cc2cccc3ccccc23)NC(=O)C(C)(C)NC1=O | –
4 | 0.646 | 3.6 | 3.7 | – | CC(=O)N[C@@H](C)C(=O)N[C@@H](CCCNC(=N)N)C(=O)N[C@@H](CC(=O)O)C(=O)N[C@@H](CS)C(=O)N1CCC[C@H]1C(=O)N[C@@H](CC(C)C)C(=O)N[C@H](C(=O)N[C@@H](CC(N)=O)C(=O)N1CCC[C@H]1C(=O)N[C@@H](CC(C)C)C(=O)N[C@@H](CS)C(=O)N[C@@H](CC(C)C)C(=O)N[C@@H](Cc1cnc[nH]1)C(=O)N1CCC[C@H]1C(=O)NCC(=O)N[C@@H](Cc1c[nH]c2ccccc12)C(=O)N[C@H](C(=O)N[C@@H](CS)C(=O)O)[C@@H](C)O)C(C)C | –
